Patent US4194006A, “Therapeutic application of acetyl-d,l-carnitine and other acyl derivatives of d,l-carnitine” (priority 1977, dated 1980)
Where two headings read alike, the source gives them in different places.

Assays:
isolated rat atrium = test: antiarrhythmic effect, isolated rat atrium method of M. Libonati and G. Segre; conditions: Rattus norvegicus
isolated rabbit hearts [1] = test: cardiokinetic effect on isolated heart (Langendorff): contractile force after anoxia, positive inotropic effect; conditions: 10 minutes from interruption of anoxic period
Summary of the method: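 Rabbit hearts were perfused Langendorff-style with oxygenated Ringer at 38.2 °C. Anoxia was applied until contractile force dropped by 80%, then the hearts were reoxygenated with or without compound. Contractile force was expressed as a percentage 10 min after the anoxic period ended.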

isolated rabbit hearts [2] = test: coronary vasodilator effect: coronary flow, isolated heart (Langendorff)
Summary of the method: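 Langendorff-perfused isolated rabbit hearts in oxygenated Ringer at 38.2° C; anoxia imposed until contractile force fell by 80%, then reoxygenated with or without test compound. Coronary flow, isometric contraction and ECG recorded by polygraph.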

in vivo = conditions: mouse, in vivo, iv
Source text: The tolerance of acetyl-d,l-carnitine and of the other aforementioned acyl derivatives of the formula (I), as well as their salts were investigated by comparing the LD50 obtained by administering the compounds intravenously in mice with the LD50 obtained under the same experimental conditions by intravenous injection of d,l-carnitine.

heart homogenates = test: oxygen consumption (Q O2) in heart homogenates with and without added CoA; type: biochemical; conditions: compound 10^-3 M
female rats = test: antifatigue effect: rota-rod; type: in vivo, rat; conditions: Rattus norvegicus, ip, 0.25 h; for responders at 200 mg/kg: read-out: percentage of animals staying on the rota-rod more than 180 seconds, 200 mg/kg i.p.; for responders at 300 mg/kg: read-out: percentage of animals staying on the rota-rod more than 180 seconds, 300 mg/kg i.p.; for responders at 400 mg/kg: read-out: percentage of animals staying on the rota-rod more than 180 seconds, 400 mg/kg i.p.; for responders at 600 mg/kg: read-out: percentage of animals staying on the rota-rod more than 180 seconds, 600 mg/kg i.p.
Summary of the method: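 Female rats dosed intraperitoneally in saline, with controls given saline alone. Every 15 min after treatment animals were placed on a 6 cm rod rotating at 16 r.p.m. Value is the percentage of animals staying on the rod for more than 180 s, per session.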

[3] = read-out: Mean percent variation versus controls: excitability (-%)
[4] = read-out: Mean percent variation versus controls: frequency max (-%)
[5] = read-out: Mean percent variation versus controls: refractory period (+%)
[6] = read-out: Mean percent variation versus controls: rheobase (+%)
[7] = session 6 (every 15 minutes), * p < 0.05

Structure (SMILES): C[N+](C)(C)CC(O)CC(=O)[O-] (racemic) [d,l-carnitine, γ-trimethyl amino β-hydroxy butyric acid]
- inhibition at 0.001 µg/mL (isolated rat atrium; [3]): 12.7%
- inhibition at 0.01 µg/mL (isolated rat atrium; [3]): 19.3%
- inhibition at 0.1 µg/mL (isolated rat atrium; [3]): 27.1%
- inhibition at 0.001 µg/mL (isolated rat atrium; [4]): 7.28%
- inhibition at 0.01 µg/mL (isolated rat atrium; [4]): 23.6%
- inhibition at 0.1 µg/mL (isolated rat atrium; [4]): 25.2%
- activation at 0.001 µg/mL (isolated rat atrium; [5]): 18.3%
- activation at 0.01 µg/mL (isolated rat atrium; [5]): 26%
- activation at 0.1 µg/mL (isolated rat atrium; [5]): 31.1%
- activation at 0.001 µg/mL (isolated rat atrium; [6]): 5.81%
- activation at 0.01 µg/mL (isolated rat atrium; [6]): 9.07%
- activation at 0.1 µg/mL (isolated rat atrium; [6]): 20.3%
- Contractile force, Mean ± S.E. (isolated rabbit hearts [1]; 1·10^-5 g/lt): 50.9 ± 3.01%
- Contractile force, Mean ± S.E. (isolated rabbit hearts [1]; 1·10^-6 g/lt): 28.4 ± 3.15%
- Contractile force, Mean ± S.E. (isolated rabbit hearts [1]; 5·10^-6 g/lt): 32.2 ± 2.90%
- Coronary flow, Mean ± S.E. (isolated rabbit hearts [2]; 1·10^-5 g/lt): 85.18 ± 3.26%
- Coronary flow, Mean ± S.E. (isolated rabbit hearts [2]; 1·10^-6 g/lt): 74.02 ± 6.17%
- Coronary flow, Mean ± S.E. (isolated rabbit hearts [2]; 5·10^-6 g/lt): 77.85 ± 3.01%
- LD50 (in vivo): ~610 mg/kg
- Q O2 (heart homogenates; added CoA 0): 7.0 μlO2 /mg protein/hr.
- Q O2 (heart homogenates; added CoA 2 × 10^-6 M): 8.4 μlO2 /mg protein/hr.
- Q O2 (heart homogenates; added CoA 4 × 10^-6 M): 19.5 μlO2 /mg protein/hr.
- Q O2 (heart homogenates; added CoA 8 × 10^-7 M): 8.1 μlO2 /mg protein/hr.
- responders at 200 mg/kg (female rats; session 1 (every 15 minutes)): 0%
- responders at 200 mg/kg (female rats; session 2 (every 15 minutes)): 0%
- responders at 200 mg/kg (female rats; session 3 (every 15 minutes)): 0%
- responders at 200 mg/kg (female rats; session 4 (every 15 minutes)): 0%
- responders at 200 mg/kg (female rats; session 5 (every 15 minutes), * p < 0.05): 0%
- responders at 200 mg/kg (female rats; [7]): 0%
- responders at 300 mg/kg (female rats; session 1 (every 15 minutes)): 0%
- responders at 300 mg/kg (female rats; session 2 (every 15 minutes)): 0%
- responders at 300 mg/kg (female rats; session 3 (every 15 minutes)): 0%
- responders at 300 mg/kg (female rats; session 4 (every 15 minutes)): 0%
- responders at 300 mg/kg (female rats; session 5 (every 15 minutes)): 10%
- responders at 300 mg/kg (female rats; session 6 (every 15 minutes)): 10%
- responders at 400 mg/kg (female rats; session 1 (every 15 minutes)): 0%
- responders at 400 mg/kg (female rats; session 2 (every 15 minutes)): 0%
- responders at 400 mg/kg (female rats; session 3 (every 15 minutes)): 8.33%
- responders at 400 mg/kg (female rats; session 4 (every 15 minutes)): 25%
- responders at 400 mg/kg (female rats; session 5 (every 15 minutes)): 25%
- responders at 400 mg/kg (female rats; [7]): 25%
- responders at 600 mg/kg (female rats; session 1 (every 15 minutes)): 0%
- responders at 600 mg/kg (female rats; session 2 (every 15 minutes)): 16.7%
- responders at 600 mg/kg (female rats; session 3 (every 15 minutes)): 16.7%
- responders at 600 mg/kg (female rats; session 4 (every 15 minutes)): 16.7%
- responders at 600 mg/kg (female rats; session 5 (every 15 minutes)): 16.7%
- responders at 600 mg/kg (female rats; [7]): 25%
